Key:
[1] = system: AR; experiment: pPSA-Luc / MMTV-Luc reporter assay in PC-3 cells with or without AR expression vector; assay type: cell-based, human
Method: Plasmid Reporters and Expression Vectors. The ARE responsive luciferase reporter plasmid, pPSA-630 luciferase (pPSA-Luc) was prepared as previously described (29). pPSA-Luc contains the PSA promoter region (−630 to 12) with three AREs, all of which are critical to the activity of the pPSA-Luc promoter. The MMTV-Luc contains one consensus ARE and the expression vector, pCMV-hAR constitutively expresses a fully functional human androgen receptor. The pCMV-GFP-rAR was prepared as previously described (30).
Transient Transfections with Reporters and Luciferase Assay. LNCaP and PC-3 cells were transfected, with some modifications, as previously described (20). For AR transactivation, cells were transfected with 0.1 μg of MMTV-Luc or pPSA-Luc per plate. Co-transfection experiments with pCMV-hAR or pCMV-GFP-rAR, 0.1 μg per plate was also used. For experiments involving GFP fluorescence imaging, treatments were not added until 30 h after transfection.

[2] = target: T1, AR (Homo sapiens, UniProt P10275, T878A); experiment: AR cytoplasmic/nuclear distribution by subcellular fractionation and Western blot in LNCaP cells; assay type: cell-based
T1 construct: 95 μL of either LNCaP cell extracts or recombinant AR protein; endogenous in cells; host or cells: LNCaP
T1 sequence (P10275 1-920 T878A): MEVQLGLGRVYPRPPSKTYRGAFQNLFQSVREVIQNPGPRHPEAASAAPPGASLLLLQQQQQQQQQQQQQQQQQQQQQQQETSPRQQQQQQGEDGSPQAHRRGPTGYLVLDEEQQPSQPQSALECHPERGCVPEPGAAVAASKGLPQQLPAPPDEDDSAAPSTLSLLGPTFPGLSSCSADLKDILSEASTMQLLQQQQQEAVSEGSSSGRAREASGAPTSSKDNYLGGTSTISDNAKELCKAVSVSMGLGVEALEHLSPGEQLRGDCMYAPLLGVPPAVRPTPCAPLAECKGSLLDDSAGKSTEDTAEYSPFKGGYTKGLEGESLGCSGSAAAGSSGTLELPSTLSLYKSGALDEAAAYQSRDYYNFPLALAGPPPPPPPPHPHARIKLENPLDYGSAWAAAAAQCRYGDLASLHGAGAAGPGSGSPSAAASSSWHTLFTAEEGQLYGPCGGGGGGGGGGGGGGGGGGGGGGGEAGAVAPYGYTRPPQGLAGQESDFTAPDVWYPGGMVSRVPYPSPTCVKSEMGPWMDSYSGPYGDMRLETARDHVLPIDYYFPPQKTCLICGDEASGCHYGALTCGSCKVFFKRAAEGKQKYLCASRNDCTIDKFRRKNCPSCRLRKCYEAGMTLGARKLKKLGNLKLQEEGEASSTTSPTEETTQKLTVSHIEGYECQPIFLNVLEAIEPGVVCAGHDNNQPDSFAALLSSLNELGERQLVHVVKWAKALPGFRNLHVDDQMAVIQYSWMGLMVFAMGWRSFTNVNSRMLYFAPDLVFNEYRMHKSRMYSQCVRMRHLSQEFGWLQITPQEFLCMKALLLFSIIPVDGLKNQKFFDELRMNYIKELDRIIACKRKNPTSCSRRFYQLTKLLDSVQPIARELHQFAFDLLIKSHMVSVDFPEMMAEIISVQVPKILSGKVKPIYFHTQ
Method: Subcellular Fractionation. Three near confluent (80-90%) cultures of LNCaP cells in 100 mm Petri dishes were used for each treatment. Treatments were added as 1 μL of 1,000× solution in DMSO per ml of medium for the indicated time. After incubation with treatments at 37° C., cytosolic and nuclear proteins were prepared as described (32,33) with modifications. Briefly, cells were lysed in hypotonic buffer (10 mM Hepes, pH 7.5) and harvested in MDH buffer (3 mM MgCl2, 1 mM DTT, 25 mM Hepes, pH 7.5). After homogenization, supernatant was saved for cytosolic proteins and nuclear proteins were extracted from the pellets using MDHK buffer (3 mM MgCl2, 1 mM DTT, 0.1 M KCl, 25 mM Hepes, pH 7.5) followed by HDK buffer (25 mM Hepes, pH 7.5, 1 mM DTT, 0.4 M KCl). Cytosolic and nuclear extracts were subsequently analyzed by Western blot analysis.
Western Blot Analysis. Following the indicated treatment, Western immunoblot analyses of androgen receptor from LNCaP cells were performed as described previously (20). […] The amount of protein was quantified by Gel Densitometer (Bio-Rad) and normalized with P-actin when used as an internal control.

[3] = system: LNCaP cells; experiment: [3H]Thymidine incorporation (DNA synthesis) in LNCaP cells; assay type: cell-based, human; details: uninduced and androgen-induced (1 nM DHT) growth conditions
[4] = system: BP-induced pulmonary adenomas; details: mice; cited from earlier work

SMILES: c1ccc2c(Cc3c[nH]c4ccccc34)c[nH]c2c1 [DIM, 3,3′-diindolylmethane]
- effect on pPSA-Luc reporter ([1]; PC-3 without co-transfection of an AR expression vector): has no effect
- transactivation of reporter genes by compound alone ([1]; either cell line, with or without co-transfection of wild-type AR): did not induce transactivation
- effect on nuclear translocation of the AR, compound alone ([2]; absence of DHT): had no effect
- block of DHT-induced AR translocation ([2]; co-treatment with 1 nM DHT): up to 75%
- inhibition of DNA synthesis [3]: up to 90%
- incidence of BP-induced pulmonary adenomas [4]: reduced the incidence
